From US4965280A, “Antifungal carbinols” (E. I. Du Pont de Nemours and Company, priority 1989, dated 1990) come the findings set out here.

The test system of experiment [1] is Sclerotium rolfsii. Put plainly: Example M southern blight. To be noted: Agroathelia rolfsii, 336 h; 5 kg/ha; read-out: disease control rating, Ex. M. Type of experiment: in vivo. As for the experimental part:
[…] Seeds and soil were then inoculated with a mixture of sand, cereal and mycelium of the fungus Sclerotium rolfsii, causal agent of sourthern blight, and incubated in a growth chamber at 30° C. for 14 days. Disease ratings were then made.

Experiment [2] deals with Rhizoctonia solani. Put plainly: Example K cotton blight. To be noted: 336 h, 5 kg/ha, read-out: disease control rating, Ex. K. Type of experiment: in vivo. As for the experimental part:
[…] Seeds and soil were then inoculated with a mixture of sand, cereal and mycelium of the fungus Rhizoctonia solani, causal agent of cotton blight, and incubated in a growth chamber at 30° C. for 14 days. Disease ratings were then made.

The test system of experiment [3] is Puccinia recondita. Put plainly: Example G wheat leaf rust. The settings on record: read-out: disease control rating, Ex. G. It is filed as in vivo.
Experiment [4] deals with Venturia inaequalis. Put plainly: Example A apple scab. Type of experiment: in vivo. The settings on record: read-out: disease control rating, Ex. A. A digest of the protocol: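 Spray application to run-off on apple seedlings; compound at 100 or 20 ppm in water with 250 ppm TREM 014 (polyhydric alcohol esters) and 6% acetone of final volume.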
Experiment [5] concerns Rhizoctonia solani. Description: Example F rice sheath blight. To be noted: Rhizoctonia solani, 144 h, read-out: disease control rating, Ex. F. It is filed as in vivo. In outline: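 Foliar run-off spray, rice seedlings: compound at 100 or 20 ppm in aqueous 250 ppm polyhydric alcohol ester surfactant, acetone 6% v/v final.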
The subject of experiment [6] is Botrytis cinerea. Put plainly: Example C bean grey mold. Type of experiment: in vivo. The settings on record: Botrytis cinerea, 24 h, read-out: disease control rating, Ex. C. A digest of the protocol:
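Spray rates: 100 and 20 ppm. Vehicle: purified water with 6% acetone by final volume plus 250 ppm TREM 014 (polyhydric alcohol esters). Host plants, broad bean seedlings, were wetted until run-off.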

Experiment [7] deals with Candida albicans ATCC 11651. Put plainly: In vivo systemic Candida infection in mice, primary assay. The arrangement: species or system Candida albicans; CF-1 female mice. The settings on record: Candida albicans, 150 mg/kg per day, read-out: % Survival. In outline: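 CF-1 female mice (20 g, 10 per group) were infected IV with 0.2 ml of 1×10^7/ml C. albicans ATCC 11651, then given test compound subcutaneously at 50 or 150 mg/kg/day at 1 and 6 h post-infection and once daily for three more days. Survival was followed for 21 days against infected untreated mice; ≥70% protection at 14 days was scored active.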

Experiment [8] deals with Erysiphe graminis f. sp. tritici. Description: Example D wheat powdery mildew. It is filed as in vivo. To be noted: Blumeria graminis, 144 h, read-out: disease control rating, Ex. D. A digest of the protocol:
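Seedling wheat was treated by spraying to run-off; formulation used acetone as co-solvent (6% final) and TREM 014 surfactant at 250 ppm, with compound at 100 or 20 ppm.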

The subject of experiment [9] is Pyricularia oryzae. Put plainly: whole plant or invertebrate. It is filed as in vivo. To be noted: Pyricularia oryzae, 120 h; for pest or weed control at 100 ppm: read-out: disease control rating, Ex. E, 100 PPM; for pest or weed control at 20 ppm: read-out: disease control rating, Ex. E, 20 PPM.
In experiment [10] the test system is Fusarium oxysporum f. sp. cucumerinum. Put plainly: Example L cucumber wilt. Type of experiment: in vivo. To be noted: 336 h, 5 kg/ha, read-out: disease control rating, Ex. L. How it is done: […] Seeds and soil were then inoculated with a mixture of sand, cereal and mycelium of the fungus Fusarium oxysporum f. sp. cucumerinum, causal agent of cucumber wilt, and incubated in a growth chamber at 30° C. for 14 days. Disease ratings were then made.

The test system of experiment [11] is Cercosporidium personatum. Put plainly: Example B Peanut Late Leafspot. Type of experiment: in vivo. To be noted: Nothopassalora personata, read-out: disease control rating, Ex. B. In outline:
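Spray suspensions at 100 or 20 ppm, prepared from acetone solutions (acetone 6% of final volume) in water carrying 250 ppm of a polyhydric alcohol ester surfactant, were applied to peanut seedlings until run-off.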

The subject of experiment [12] is Candida albicans ATCC 11651. Put plainly: In vitro antifungal MIC, microtiter broth dilution. The settings on record: for MIC: Candida albicans, ATCC11651, 24 h, read-out: MIC values, C. albicans, 30°, 24 hours. On the technique in general: Dilution methods test growth across graded concentrations, often in twofold steps.
For experiment [13], the system named is Pythium aphanadermatum. Description: Example J cucumber damping off. It is filed as in vivo. The settings on record: Pythium, 336 h; 5 kg/ha; read-out: disease control rating, Ex. J. In outline: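 Seeds and soil were inoculated with a mix of sand, cereal and Pythium aphanadermatum mycelium, the fungus responsible for cucumber damping off. They were kept in a growth chamber at 30° C. for 14 days, and disease was then rated to assess control.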

Experiment [14] relates to Plasmorpara viticola. Put plainly: Example I grape downy mildew. Type of experiment: in vivo. To be noted: read-out: disease control rating, Ex. I. In outline:
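First, each compound is taken up in acetone amounting to 6% of the final volume. It is then suspended in purified water containing 250 ppm of the polyhydric alcohol ester surfactant TREM 014, at 100 or 20 ppm. Finally, the suspension is sprayed onto grape seedlings until run-off.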

Experiment [15] deals with Aspergillus fumigatus ATCC 28214. Description: In vitro antifungal MIC, microtiter broth dilution. To be noted: for MIC: Aspergillus fumigatus, ATCC28214, 24 h, read-out: MIC values, A. fumigatus, 30°, 24 hours.
Experiment [16] concerns Phytophthora infestans. Description: whole plant or invertebrate. Type of experiment: in vivo. The settings on record: Phytophthora infestans, in Solanum lycopersicum, read-out: disease control rating, Ex. H, 100 PPM.

Each structure is given as a SMILES string. Converted amounts (≈) assume the structure as drawn. Like-named read-outs stand apart in the source and are kept apart here. A value given as a limit tells only on which side of the number the result lay.

Take `C=C(CN(C)C)C(O)(Cn1cncn1)c1ccc(Cl)cc1Cl` (centres unmarked) [Example 453]: the pest or weed control at 5000 g/ha in experiment [1], in experiment [2], in experiment [10] and in experiment [13] was 0% throughout. Further, the pest or weed control at 100 ppm in experiment [3] amounted to 100%; in experiment [4], 55%; in [5], 0%; in experiment [6], 75%; in experiment [8], 94%; in experiment [9], 0%. Besides, the pest or weed control at 100 ppm in experiment [11] worked out at 32%; in experiment [14], 0%; in [16], 0%. Also, the responders at 150 mg/kg in experiment [7] (ATCC11651, 168 h, day 7) worked out at 60%; in experiment [7] (ATCC11651, 336 h, day 14), 40%; in experiment [7] (ATCC11651, 504 h, day 21), 30%. Further, the figures for the MIC in experiment [12] and in experiment [15] were 1.6 mg/L (≈ 4.69 µM) and greater than 100 mg/L, respectively.

On to `C=C(c1ccc(F)cc1)C(O)(Cn1cncn1)c1ccc(Cl)c(Cl)c1` (centres unmarked) [Example 651, 2-(3,4-Dichlorophenyl)-3-(4-fluorophenyl)-1-(1H-1,2,4-triazol-1-yl)-3-buten-2-ol], for which the pest or weed control at 5000 g/ha in experiment [1], in experiment [2], in [10] and in experiment [13] was 0% throughout. The pest or weed control at 20 ppm in [3] came to 100%; in experiment [4], 67%; in [5], 0%; in [6], 7%; in [8] it was 67%; in experiment [9] it was 0%. Besides, in experiment [11], the pest or weed control at 20 ppm amounted to 0%. Besides, the pest or weed control at 100 ppm in [5] came to 62%; in [6], 42%; in experiment [9], 0%; in experiment [14] it was 46%; in experiment [16], 0%. For the same compound, the responders at 150 mg/kg in experiment [7] (ATCC11651, 168 h, day 7) worked out at 100%; in experiment [7] (ATCC11651, 336 h, day 14) it was 50%; in experiment [7] (ATCC11651, 504 h, day 21) it was 20%. In addition, the minimal inhibitory concentration (MIC) in experiment [12] was determined as 0.8 mg/L (≈ 2.12 µM); in [15], 100 mg/L (≈ 264 µM).

Regarding `C=C(c1ccc(C(F)(F)F)cc1)C(O)(Cn1cncn1)c1ccc(Cl)cc1` (centres unmarked) [Example 67], the pest or weed control at 5000 g/ha in [1], in experiment [2], in experiment [10] and in experiment [13] was 0% in each case. For the same compound, the pest or weed control at 20 ppm amounted to 89% in experiment [3]; 58% in experiment [4]; 35% in [5]; 60% in experiment [6]; 85% in [8]; 0% in experiment [9]. Moreover, the pest or weed control at 20 ppm in experiment [11] was 99%. For the same compound, the pest or weed control at 100 ppm is 68% in [5]; 75% in experiment [6]; 0% in experiment [9]; 1% in [14]; 2% in experiment [16]. Further, the responders at 150 mg/kg in [7] (ATCC11651, 168 h, day 7) worked out at 100%; in experiment [7] (ATCC11651, 336 h, day 14) it was 100%; in [7] (ATCC11651, 504 h, day 21) it was 100%. Besides, the MIC in experiment [12] was determined as 0.03 mg/L (≈ 0.0762 µM); in experiment [15], 100 mg/L (≈ 254 µM).

Turning to `C=C(c1cccc(Cl)c1)C(O)(Cn1cncn1)c1ccc(Cl)cc1` (centres unmarked) [Example 41], the pest or weed control at 5000 g/ha in experiment [1], in [2], in experiment [10] and in experiment [13] was 0% in each case. In addition, the pest or weed control at 100 ppm turned out to be 100% in [3]; 100% in experiment [4]; 97% in experiment [5]; 96% in experiment [6]; 98% in experiment [8]; 7% in experiment [9]. Moreover, the values for the pest or weed control at 100 ppm in experiment [11], in [14] and in experiment [16] were 100%, 100% and 0%, respectively. Also, the responders at 150 mg/kg was 100% in experiment [7] (ATCC11651, 168 h, day 7) and 100% in [7] (ATCC11651, 336 h, day 14). The MIC in [12] turned out to be 0.4 mg/L (≈ 1.11 µM); in experiment [15], 50 mg/L (≈ 139 µM).

Consider `C=C(c1ccc(Cl)cc1)C(O)(Cn1cncn1)c1ccc(Cl)cc1Cl` (centres unmarked) [Example 26, 2-(2,4-Dichlorophenyl)-3-(4-chlorophenyl)-1-(1H-1,2,4-triazol-1-yl)-3-buten-2-ol], for which the pest or weed control at 5000 g/ha in [1] worked out at 35%; in experiment [2], 25%; in [10], 25%; in experiment [13], 0%. Besides, the pest or weed control at 100 ppm in [3] was found to be 97%; in [4] it was 100%; in [5], 61%; in [6], 96%; in experiment [8] it was 86%; in experiment [9], 31%. Also, the pest or weed control at 100 ppm was determined as 100% in [11], 86% in [14] and 23% in [16]. The responders at 150 mg/kg in experiment [7] (ATCC11651, 168 h, day 7) was found to be 100%; in [7] (ATCC11651, 336 h, day 14), 100%; in experiment [7] (ATCC11651, 504 h, day 21), 100%. Further, the “MIC values, C. albicans” value in [12] (30°, 24 hours) was no more than 0.4 mg/L. The “MIC values, A. fumigatus” value in experiment [15] (30°, 24 hours) was determined as 12.5 mg/L (≈ 31.7 µM).

By MIC is commonly meant the smallest concentration in the dilution series that meets the test's criterion for growth inhibition.
